Data: paper PMC12455390, “Three Is Better than One: A Multimetal Complex that Triggers Immunogenic Cell Death” (Angewandte Chemie (International Ed. in English), 2025)
Where two headings read alike, the source gives them in different places.

Tests used:
human TrxR1 = target: T1, human TrxR1 (Homo sapiens, UniProt Q16881); assay: Isolated TrxR1 inhibition (DTNB assay); type: biochemical; conditions: 75 min incubation at 37 °C
T1 construct: purchased SeLENOZYME
T1 sequence (Q16881 1-499 isoform Q16881-5): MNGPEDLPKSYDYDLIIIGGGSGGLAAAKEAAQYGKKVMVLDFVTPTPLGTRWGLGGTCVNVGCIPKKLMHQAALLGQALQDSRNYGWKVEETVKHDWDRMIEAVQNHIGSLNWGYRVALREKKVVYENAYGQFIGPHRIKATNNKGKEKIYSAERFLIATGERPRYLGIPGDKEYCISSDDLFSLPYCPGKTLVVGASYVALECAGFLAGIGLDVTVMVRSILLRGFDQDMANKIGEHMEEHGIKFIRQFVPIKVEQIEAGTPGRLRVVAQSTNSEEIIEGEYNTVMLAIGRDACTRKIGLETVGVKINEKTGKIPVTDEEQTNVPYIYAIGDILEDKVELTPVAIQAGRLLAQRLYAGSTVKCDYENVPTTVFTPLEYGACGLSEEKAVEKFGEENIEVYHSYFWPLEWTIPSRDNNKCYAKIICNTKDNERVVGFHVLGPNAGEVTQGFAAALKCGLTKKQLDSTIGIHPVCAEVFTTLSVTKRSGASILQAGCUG
Experimental: (§1) A number of gold and ruthenium complexes are known to inhibit members of the TrxR enzyme family.^[ [27] ^] […] We thus sought to evaluate the activity of our gold‐ and ruthenium‐containing complexes against TrxR1 (found in the cytoplasm) and TrxR2 (found in the mitochondria).
(§2) Human TrxR1 and TrxR2 were purchased from SeLENOZYME and inhibition studies were carried out by means of a DTNB assay in 96-well culture plates. Enzymes were diluted to achieve a concentration of 3.58 U mL^−1. The compounds subject to testing were freshly dissolved in DMF. 10 μL aliquots of the enzyme solution and 10 μL of solutions of the compounds at graded concentrations or 10 μL of 1% DMF in PBS (positive control) were added and incubated for 75 min at 37 °C. A second control consisted of 10 µL of the highest concentration of each compound with 10 µL of PBS. After the chosen incubation time, 10 µL of NADPH (10 mM), 160 µL TE buffer (50 mM Tris-HCl, 2 mM EDTA, pH 7.5) and 10 µL ethanolic DTNB (50 mM) were added producing a total reaction volume of 200 µL. After proper mixing, the formation of 5-TNB was monitored with a microplate reader at 405 nm. This was done 10 times at 30 second intervals over the course of about 5 min. A TNB standard curve (0-2 mM in 200 µL TE buffer) was used to calculate the exact DTNB consumed in the reaction with linear region slopes being calculated by plotting A405 vs time (min). The IC50 values representing the concentration of compound serving to decrease the enzymatic activity of the untreated control by 50% were calculated and are given as the mean and standard error of three repeated experiments. The combination index (CI) was calculated using the Chou-Talalay method^6

[1] = test system: reducing enzymes, such as lipoamide dehydrogenase, glutathione reductase, and TrxR; type: cell-based
Experimental: We thus explored several targets in addition to cellular and organelle uptake after 24 h incubation. A lipoate‐to‐dihydrolipoate reduction assay in HCT‐116 cells was used to evaluate the ability of the complexes to inhibit reducing enzymes, such as lipoamide dehydrogenase, glutathione reductase, and TrxR.^[ [25] ^]
In short, HCT-116 cells were harvested and seeded at a density of 10,000 cells/well in 96-well culture plates. Following an overnight incubation at 37°C under a 5% CO2 atmosphere, the medium was replaced, and the cells incubated with 1 µM of each complex for additional 24 hr. Thereafter, the media were removed from each well, which were then washed with 200 μL of HBSS solution. Finally, 100 µL of 5 mM lipoate and 1 mM of DTNB solutions were added to each well. The absorbance of each well at 405 nm was recorded immediately and once every 20 min for one hour using a microplate reader. Plates were covered with aluminum foil between readings.

human TrxR2 = target: T2, human TrxR2 (Homo sapiens, UniProt Q9NNW7); assay: Isolated TrxR2 inhibition (DTNB assay); type: biochemical; conditions: 75 min incubation at 37 °C
T2 construct: purchased SeLENOZYME
T2 sequence (Q9NNW7 37-524): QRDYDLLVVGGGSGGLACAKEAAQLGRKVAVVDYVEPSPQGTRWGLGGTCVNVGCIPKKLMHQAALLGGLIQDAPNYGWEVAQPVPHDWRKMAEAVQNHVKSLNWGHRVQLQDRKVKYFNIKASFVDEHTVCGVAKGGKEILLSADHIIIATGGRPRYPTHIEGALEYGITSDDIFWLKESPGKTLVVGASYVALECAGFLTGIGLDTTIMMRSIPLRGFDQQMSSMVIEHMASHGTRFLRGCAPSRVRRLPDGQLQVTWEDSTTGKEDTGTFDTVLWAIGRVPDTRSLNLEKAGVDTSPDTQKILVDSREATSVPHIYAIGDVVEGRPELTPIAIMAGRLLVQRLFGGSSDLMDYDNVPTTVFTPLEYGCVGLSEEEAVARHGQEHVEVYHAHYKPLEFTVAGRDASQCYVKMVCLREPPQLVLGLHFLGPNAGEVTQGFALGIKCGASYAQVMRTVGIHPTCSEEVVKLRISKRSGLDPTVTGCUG
Experimental: as §1, §2

[2] = test system: A2780 (ovarian carcinoma); assay: Antiproliferative MTT assay, A2780; type: cell-based, human; conditions: A2780, 72 h incubation
Experimental: (§3) We examined the antiproliferative activity of the heterometallic complexes 3–5 and compared them against their monometallic constituent components, as well as a physical 1:1:1 mixture of 1 + Oxa + 2 after 72 h incubation across a panel of five cancer cell lines: A2780 (ovarian carcinoma), A2780cis (ovarian carcinoma resistant to cisplatin, also referred to as A2780CP), CT26 WT (murine colorectal carcinoma), A375 (melanoma), and PC9 (non‐small cell lung cancer).
(§4) A375 melanoma cells (5000 cells/well), PC9 […] cells (5000 cells/well), CT26 WT murine colon carcinoma cells (5000 cells/well), A2780 ovarian carcinoma cells (5000 cells/well), and A2780cis cisplatin-resistant ovarian carcinoma cells (7000 cells/well), were seeded in flat-bottom 96-well plates in their respective cell culture media (100 µL) and incubated at 37°C in a 5% CO2 environment for 24 h. After that, the media were replaced with the fresh media. Stock solutions of the compounds in DMSO or in cell culture medium (for Oxa) were freshly prepared and diluted with the respective cell culture medium to graded concentrations (final concentration of DMSOmax: 0.5% v/v). After 72 h of exposure, the media were removed and 100 µL of 0.5 mg/mL 3-(4,5-dimethylthiazol-2-yl)-2,5-diphenyl tetrazolium bromide (MTT) in DMEM or RPMI were added and the plate in question further incubated for an additional 1 h. The media containing the MTT solution was removed and the resulting formazan crystals were dissolved in 100 µL DMSO. The absorbance of the solution in each well was read at 570 nm using a BioTek Cytation3 plate reader. The IC50 value, which is the drug concentration needed for 50% reduction in survival, based on the survival curve, was calculated by fitting nonlinear curves in GraphPad Prism 5 Ver 5.03, using a normalized response variable slope model constructed by plotting cell viability (%) vs log of the concentration of the complex in question in nM. The results are presented as the mean values of three independent experiments.

HCT-116 cells = assay: Total cellular metal accumulation (ICP-MS); type: cell-based; conditions: 1 µM, 24 h
Experimental: It is important to note the TrxR assay was performed using isolated enzymes. […] Recognizing this, we incubated HCT‐116 cells with 1 µM of complexes 1–5 for 24 h and quantified the total metal content via ICP‐MS (Figure 4a).
1 x 10^6 HCT-116 cells were seeded in a 6-well plate (2 mL RPMI-1640). After incubating overnight, the medium was replaced, and the cells were treated with the test compounds (1 µM) for 24 h. The resulting cell monolayers were washed twice with cold PBS, harvested and counted in PBS for a total volume of 400 µL. Samples were divided, and each was mineralized with 1 mL aqua regia and evaporated to dryness on a 110 °C hot plate overnight. Later, 1 mL of 2% HCl + 1% thiourea was added to each vial. Samples were quantified via ICP-MS. Metal accumulation levels were determined using the relative isotopic prevalence of ^195Pt, ^101Ru, and ^197Au.

[3] = test system: A2780cis (ovarian carcinoma resistant to cisplatin); assay: Antiproliferative MTT assay, A2780cis; type: cell-based, human; conditions: A2780 CisR, 72 h incubation
Experimental: as §3, §4

A375 (melanoma) = assay: Antiproliferative MTT assay, A375; type: cell-based, human; conditions: A375, 72 h incubation
Experimental: as §3, §4

[4] = test system: PC9 (non-small cell lung cancer); assay: Antiproliferative MTT assay, PC9; type: cell-based, human; conditions: PC9, 72 h incubation
Experimental: as §3, §4

[5] = test system: CT26 WT (murine colorectal carcinoma); assay: Antiproliferative MTT assay, CT26 WT; type: cell-based; conditions: CT 26 WT, 72 h incubation
Experimental: as §3, §4

CT26 cells = assay: Extracellular HMGB1 release (ELISA); type: cell-based, murine; conditions: IC50 concentrations, 24 h
Experimental: Oxa alone produced a modest effect, consistent with its known ICD profile.^[ [5] ^]
1 x 10^6 CT-26 cells were seeded in a 6-well plate (2 mL RPMI-1640). […] The HMGB1 release of the supernatant was quantified using HMGB1 Detection Kit ELISA (Chondrex, Catalog 6010) according to the manufacturer’s instructions.

Row | Compound | IC50 (human TrxR1) [µM] | dihydrolipoate production relative to control ([1]; HCT-116 cells, 1 µM, 24 h) | IC50 (human TrxR2) [µM] | IC50 [2] [µM] | total cellular metal uptake (HCT-116 cells) | dihydrolipoate production relative to control [1] | IC50 [3] [µM] | IC50 (A375 (melanoma)) [µM] | IC50 [4] [µM] | IC50 [5] [µM] | Extracellular HMGB1 release (CT26 cells)
1 | CC(=O)OC[C@H]1O[C@@H]([S-])[C@H](OC(C)=O)[C@@H](OC(C)=O)[C@@H]1OC(C)=O.CCP(CC)CC.[Au+] [Auranofin, reference compound] | 0.06 ± 0.02 | 55% | 0.22 ± 0.04 |  |  |  |  |  |  |  | 
2 | Cc1ccc(C(C)C)cc1.O=C(O)c1ccc(NC(=S)c2ccccn2)cc1.[Cl-].[Cl][Ru+] [Complex 1, [Chlorido(η6-p-cymene)(N-(4-benzoic acid)-2-pyridinecarbothioamide)ruthenium(II)] chloride] | 3.44 ± 0.32 |  | 4.36 ± 0.41 | 15.7 ± 4.3 | low accumulation of ruthenium | activity similar to untreated cells (control) | > 40 | > 40 | > 40 | > 40 | 
3 | Cc1cc(C)c(-n2ccn(CCOC(=O)NCCN)[c]2=[Au-3]=[c]2n(-c3c(C(C)C)cccc3C(C)C)c3c(n2-c2c(C(C)C)cccc2C(C)C)C(=O)c2ccccc2C3=O)c(C)c1.O=C([O-])C(F)(F)F [Complex 2, (1-(2-(((2-Aminoethyl)carbamoyl)oxy)ethyl)-3-mesityl-1,3-dihydro-2H-2λ3-imidazol-2-yl)(1,3-bis(2,6-diisopropylphenyl)-4,9-dioxo-1,3,4,9-tetrahydro-2H-2λ3-naphtho[2,3-d]imidazol-2-yl)gold (I) TFA salt] | 1.62 ± 0.13 | 72% | 1.27 ± 0.21 | 0.34 ± 0.08 |  |  | 0.56 ± 0.09 | 2.48 ± 0.35 | 0.49 ± 0.13 | 14.9 ± 0.4 | 
4 | O=C1[O][Pt]2([NH][C@@H]3CCCC[C@H]3[NH]2)[O]C1=O [Oxa, oxaliplatin, reference compound] | 25.6 ± 3.7 | activity similar to untreated cells (control) | 28.2 ± 2.9 | 0.29 ± 0.03 |  |  | 1.01 ± 0.22 | 3.16 ± 0.49 | 8.2 ± 1 | 20 ± 1.4 | modest effect
